Test results as given in patent publication US20240300943A1, “NOVEL SALTS OF HETEROCYCLIC COMPOUND AS PROTEIN KINASE INHIBITOR AND USES THEREOF” (HK INNO.N CORPORATION, priority 2021, published 2024).

Experiments:
[1] = system: DNBS-induced animal model (IBD rat model); assay: DNBS-induced colitis model; format: in vivo; details: oral, once a day, four weeks, FIG. 26
Method: Before induction of colitis with DNBS every week, experimental animals were fasted for 24 hours. Fasted animals were lightly anesthetized with isoflurane, catheter tubes with a length of 8 cm were inserted into the rat anus, and then colitis was induced by slowly injecting 250 μL of DNBS [15 mg (1st week), 30 mg (2nd week), 45 mg (3rd week) and 60 mg (4th week) in 250 μL of 50% ethanol] solution using a syringe pump at a rate of 100 μL/min. After the injection of the solution, a head-down posture was maintained for one minute so that the solution may spread evenly in the animal's intestines and may not leak out of the body. […]
The large intestine tissue extracted from the sacrificed experimental animals was photographed to measure the length of the large intestine. The length of the large intestine was measured from the taken picture using an image program (Leica Application Suite V4). […] The measured weight and length were used to convert the large intestine ratio (mg/cm) (=large intestine weight (mg)/large intestine length (cm)).
Calprotectin & c-reactive protein (CRP) and IFN-γ from serum collected at autopsy were analyzed by ELISA. […]

[2] = system: HDM-induced animal model (NC/Nga mice); assay: HDM-induced atopic dermatitis model (topical); format: in vivo
Method: After the back of the ears and neck of the NC/Nga mice was shaved with a razor, a proper amount of depilatory was applied and depilation was performed. After the depilatory was wiped out, about 100 mg of an atopic dermatitis-inducing reagent (Biostir, Japan) was uniformly applied to the back of the ears and neck using a micro pipette tip.
After hair removal was performed using a razor as needed, 150 μL of 4% SDS aqueous solution was uniformly applied to the back of the ears and neck using a micro pipette. After drying with cold air using a dryer, the solution was naturally dried for about two to three hours. About 100 mg of the AD-inducing reagent was uniformly applied to the back of the ears and neck using a micro pipette tip. All treatments were performed 11 times twice a week for a total of six weeks.
As a test material, an appropriate amount of phosphate in Compound 1 obtained according to Example 3 was weighed and then prepared by dissolving in a local vehicle (acetone:DMSO-7:1 v/v). At the time of preparation and administration, the test material was maintained in a light-shielding state, and was prepared and used every three days under the conditions of light-shielding refrigeration.
The administration of the test material was started from the time when the atopic score reached 2.1 to 2.3 points, and was directly applied to the center of the skin twice/day until the day of autopsy from the start date of administration of the test material (Day 0) for three weeks.
The AD-inducing material was applied and sensitized 24 hours before the autopsy, and the drug was administered and applied one hour before the autopsy. […]
To evaluate atopic dermatitis, evaluation of a skin clinical index (Matsuda et al., 1997) was performed from week 0 of the onset of atopic dermatitis. […] After that, the sum of the scores for each item was evaluated as a final grade.
An IgE concentration in blood was analyzed with serum obtained by centrifuging the blood collected on the day of autopsy, and IL-1B, IL-4, IL-13, TNF-α, IL-6, and IL-31 were analyzed using the extracted skin. […]

[3] = Hygroscopicity evaluation; format: physicochemical; details: for Individual related material: in %
From the text: Samples were placed in a glass desiccator in which relative humidity was adjusted to 33%, 53%, 75%, and 93%, and then stored for two and four weeks to be evaluated.

**Q.** Which “Efficacy in IBD rat model” value [1] does the source give for `C[C@@H]1CN(C(=O)CC#N)CC=C1c1cc(NC(=O)C2CC2)nc2[nH]ccc12` [Compound 1, (S)—N-(4-(1-(2-cyanoacetyl)-3-methyl-1,2,3,6-tetrahydropyridin-4-yl)-1H-pyrrolo[2,3-b]pyridin-6-yl)cyclopropanecarboxamide] here?
**A.** The value was “exhibits efficacy in an IBD rat model”.

**Q.** And the “Level of proinflammatory cytokines compared to the control group (vehicle)” value [1]?
**A.** The value was “significantly lower level of proinflammatory cytokines”.

**Q.** And the Atopic dermatitis-related cytokines ([2]; skin, FIG. 30)?
**A.** Its Atopic dermatitis-related cytokines is “decrease in atopic dermatitis-related cytokines”.

**Q.** What about the “Serum IgE levels” value ([2]; twice/day for three weeks, FIG. 29) of the same compound?
**A.** The value was “decreased compared to the control group”.

**Q.** Which Total related material ([3]; Initial) does the source give for `C[C@@H]1CN(C(=O)CC#N)CC=C1c1cc(NC(=O)C2CC2)nc2[nH]ccc12` [Example 3, (S)—N-(4-(1-(2-cyanoacetyl)-3-methyl-1,2,3,6-tetrahydropyridin-4-yl)-1H-pyrrolo[2,3-b]pyridin-6-yl)cyclopropanecarboxamide] here?
**A.** The Total related material was 0.37%.

**Q.** What about the Water ([3]; Initial) of the same compound?
**A.** The Water was 0.61%.

**Q.** What about the Individual related material ([3]; Initial) of the same compound?
**A.** The Individual related material was 0.07.

**Q.** What about the Total related material ([3]; relative humidity 33%, 2 W) of the same compound?
**A.** The Total related material was 0.43%.

**Q.** And the Water ([3]; relative humidity 33%, 2 W)?
**A.** The Water was 0.41%.

**Q.** And the Individual related material ([3]; relative humidity 33%, 2 W)?
**A.** Its Individual related material is 0.07.

**Q.** And the Total related material ([3]; relative humidity 33%, 4 W)?
**A.** The Total related material was 0.41%.

**Q.** And the Water ([3]; relative humidity 33%, 4 W)?
**A.** Its Water is 0.53%.

**Q.** And the Individual related material ([3]; relative humidity 33%, 4 W)?
**A.** The Individual related material was 0.08.

**Q.** And the Total related material ([3]; relative humidity 53%, 2 W)?
**A.** Its Total related material is 0.43%.

**Q.** And the Water ([3]; relative humidity 53%, 2 W)?
**A.** The Water was 0.53%.

**Q.** What about the Individual related material ([3]; relative humidity 53%, 2 W) of the same compound?
**A.** Its Individual related material is 0.08.

**Q.** And the Total related material ([3]; relative humidity 53%, 4 W)?
**A.** The Total related material was 0.35%.

**Q.** And the Water ([3]; relative humidity 53%, 4 W)?
**A.** Its Water is 0.66%.

**Q.** And the Individual related material ([3]; relative humidity 53%, 4 W)?
**A.** The Individual related material was 0.07.

**Q.** What about the Total related material ([3]; relative humidity 75%, 2 W) of the same compound?
**A.** Its Total related material is 0.44%.

**Q.** What about the Water ([3]; relative humidity 75%, 2 W) of the same compound?
**A.** The Water was 0.60%.

**Q.** And the Individual related material ([3]; relative humidity 75%, 2 W)?
**A.** The Individual related material was 0.08.

**Q.** And the Total related material ([3]; relative humidity 75%, 4 W)?
**A.** The Total related material was 0.39%.

**Q.** And the Water ([3]; relative humidity 75%, 4 W)?
**A.** The Water was 0.81%.

**Q.** And the Individual related material ([3]; relative humidity 75%, 4 W)?
**A.** The Individual related material was 0.07.

**Q.** What about the Total related material ([3]; relative humidity 93%, 2 W) of the same compound?
**A.** Its Total related material is 0.41%.

**Q.** And the Water ([3]; relative humidity 93%, 2 W)?
**A.** The Water was 1.17%.

**Q.** And the Individual related material ([3]; relative humidity 93%, 2 W)?
**A.** Its Individual related material is 0.08.

**Q.** And the Total related material ([3]; relative humidity 93%, 4 W)?
**A.** The Total related material was 0.33%.

**Q.** And the Water ([3]; relative humidity 93%, 4 W)?
**A.** Its Water is 0.97%.

**Q.** And the Individual related material ([3]; relative humidity 93%, 4 W)?
**A.** Its Individual related material is 0.07.

**Q.** And the “Skin severity scores (clinical atopic dermatitis score)” value ([2]; twice/day for three weeks, all dosed groups, FIG. 28)?
**A.** Its value is “significantly reduced”.
